Laboratory results published in US12186283B2, “Bismuth-thiol compositions and methods of use” (Microbion Corporation, priority 2018, dated 2025).
“And” between values parts separate entries of the source, which are not always exact repeats. Equal entries are not always repeated.

Legend:
[1] = Rat single-dose PK: whole blood BisEDT (bismuth by ICP-MS)
[2] = Clinical chemistry after face-mask inhalation in beagle dogs; assay type: in vivo; conditions: times not given
Description: The objective of the study is to determine the maximum tolerated dose (MTD) or maximum feasible dose (MFD) of inhaled bismuth ethanedithiol (BisEDT) after face-mask inhalation exposure (up to 60 min of exposure) in male and female beagle dogs. Animals will be monitored for up to 14 days following the first day of exposure and blood will be collected at predetermined timepoints to analyze the pharmacokinetics of BisEDT. In addition, a coagulation panel will be conducted prior to necropsy. At the conclusion of the study animals will be euthanized and undergo necropsy during which the respiratory tract will be harvested for bioanalytical and histopathological analysis. Results obtained will inform a follow up repeated dose GLP study. This test article is currently being developed as a novel formulation of a broad spectrum antimicrobial/antibiofilm agent, indicated for the treatment of lung infections in patients with cystic fibrosis.
Once adequately conditioned to the restraint device and face-masks, the animals are individually exposed to the test article aerosols. Animals receive a single face-mask inhalation exposure in a ramp study design to test article aerosols for up to 60 min. Animal observations during and post exposure determine the tolerance of inhaled BisEDT aerosols.
Group 1 (vehicle) are exposed to a vehicle atmosphere for 30 minutes. Group 2 (50 μg/kg) are exposed to BisEDT for 30 minutes. Target concentrations and exposure durations for Groups 3-5 are based on the presence of any toxicity via clinical observations or gross necropsy findings. In each of Groups 3-5, if no adverse clinical signs of toxicity are observed, the next groups' exposure will be conducted at a higher target dose. If adverse clinical signs of toxicity are observed, the next groups' exposure will be conducted at a lower target dose. This approach is repeated for all BisEDT doses. The final documented exposure duration is the maximum tolerated dose or the maximum feasible dose.
Blood are collected for pharmacokinetic (PK) analysis prior to exposure, then at 4 hr (±5 min) post exposure, and again on Day 1, Day 2, Day 7 (pre- and 4 hr (±5 min)-post exposure), Day 8, Day 9, Day 10, Day 11, Day 12, Day 13, and Day 14. A total of 0.25 mL is collected at each timepoint. No PK blood is collected from the vehicle control (Group 1) animals; only animals exposed to BisEDT have blood collected for PK analysis. Collected samples are flash frozen without processing for shipment to Medpace for bioanalytical analysis. Additional blood is collected from all animals in all groups for hematology (1 mL) and clinical chemistry (1 mL) at baseline, Day 7 (pre-exposure), and again at euthanasia. Blood (2-2 mL) is collected from all animals at necropsy for coagulation analysis (d-Dimer, fibrinogen, PT, and PTT).
For clinical chemistry analyses, whole blood (1 mL) is placed into serum separator or clot tube and […] by centrifugation at a minimum of 1300 g at 2 to 8° C. for 10 (±1) min. Plasma samples are stored at −70 to −90° C. until analysis.
Clinical chemistry samples are analyzed on a Hitachi Modular Analytics Clinical Chemistry System (Roche Diagnostics, Indianapolis, IN).

[3] = Grp 2, dogs 2001 male, 2002 female, 3 samplings each
[4] = Grp 3, dogs 3001 male, 3002 female, 3 samplings each
[5] = Grp 4, dogs 4001 male, 4004 female (3 samplings each), 4002 female, 4003 male (2 samplings each)
[6] = Grp 4 Avg (stands after dogs 4001, 4004), 3 samplings

With `C1C[S][Bi]([S]CC[S][Bi]2[S]CC[S]2)[S]1` [BisEDT, bismuth-1,2-ethanedithiol] the “duration of initial distribution into tissues” value ([1]; IV dosing, biphasic pattern) was 18 h, the “systemic levels lower than in the lung” value ([1]; inhalation dosing) was “about 10 ×” and the blood exposure ([1]; inhalation dosing 100 μg/kg) was “sustained, moderate, blood exposure with relatively stable concentrations across time”. The blood concentrations ([1]; oral dosing 250 μg/kg) was “very low, but sustained and measurable”, the AGR [2, 3] was 1.9 and 2.0 and 1.8 and 1.7 and 2.3 and the ALB [2, 3] was 3.3 g/dL and 3.4 g/dL and 3.5 g/dL and 3.6 g/dL and 3.7 g/dL. The ALT [2, 3] was 22 IU/L and 18 IU/L and 29 IU/L and 27 IU/L, the AST [2, 3] was 48 IU/L and 36 IU/L and 35 IU/L and 41 IU/L and 38 IU/L and the BUN [2, 3] was 12 mg/dL and 16 mg/dL and 15 mg/dL and 13 mg/dL and 14 mg/dL. The CA2 [2, 3] was 10.9 mg/dL and 10.8 mg/dL and 11.0 mg/dL and 10.6 mg/dL, the CHOL [2, 3] was 168 mg/dL and 167 mg/dL and 152 mg/dL and 138 mg/dL and 123 mg/dL and 114 mg/dL and the CREA [2, 3] was 0.7 mg/dL and 0.6 mg/dL. The GGT [2, 3] was 3 IU/L, the GLOB [2, 3] was 1.7 g/dL and 2.0 g/dL and 1.9 g/dL and 1.6 g/dL and the GLUC [2, 3] was 91 mg/dL and 97 mg/dL and 102 mg/dL and 95 mg/dL and 98 mg/dL and 89 mg/dL. The K [2, 3] was 4.5 mmo/L and 4.9 mmo/L and 4.7 mmo/L and 5.0 mmo/L and 5.2 mmo/L and 4.6 mmo/L, the Na [2, 3] was 149 mmo/L and 147 mmo/L and 148 mmo/L and the TBIL [2, 3] was 0.15 mg/dL. For the same molecule, the TP [2, 3] was 5.0 g/dL and 5.1 g/dL and 5.5 g/dL and 5.2 g/dL and 5.3 g/dL, the AGR ([2]; Grp 2 Avg, 3 samplings) was 1.8 and 2.2 and 2.1 and the ALB ([2]; Grp 2 Avg, 3 samplings) was 3.3 g/dL and 3.5 g/dL and 3.6 g/dL. For the same molecule, the ALPK ([2]; Grp 2 Avg, 3 samplings) was 186 IU/L and 126 IU/L and 116 IU/L, the ALT ([2]; Grp 2 Avg, 3 samplings) was 20 IU/L and 26 IU/L and 25 IU/L and the AST ([2]; Grp 2 Avg, 3 samplings) was 42 IU/L and 39 IU/L and 37 IU/L. For the same molecule, the BUN ([2]; Grp 2 Avg, 3 samplings) was 13 mg/dL and 15 mg/dL, the CA2 ([2]; Grp 2 Avg, 3 samplings) was 10.9 mg/dL and 10.8 mg/dL and the CHOL ([2]; Grp 2 Avg, 3 samplings) was 153 mg/dL and 145 mg/dL and 133 mg/dL. For the same molecule, the CREA ([2]; Grp 2 Avg, 3 samplings) was 0.7 mg/dL and 0.6 mg/dL, the GGT ([2]; Grp 2 Avg, 3 samplings) was 3 IU/L and the GLOB ([2]; Grp 2 Avg, 3 samplings) was 1.8 g/dL and 1.7 g/dL. The GLUC ([2]; Grp 2 Avg, 3 samplings) was 93 mg/dL and 98 mg/dL and 96 mg/dL, the K ([2]; Grp 2 Avg, 3 samplings) was 4.8 mmo/L and 5.1 mmo/L and 4.7 mmo/L and the Na ([2]; Grp 2 Avg, 3 samplings) was 149 mmo/L and 147 mmo/L and 148 mmo/L. For the same molecule, the TBIL ([2]; Grp 2 Avg, 3 samplings) was 0.15 mg/dL, the TP ([2]; Grp 2 Avg, 3 samplings) was 5.1 g/dL and 5.2 g/dL and 5.4 g/dL and the TRIG ([2]; Grp 2 Avg, 3 samplings) was 52 mg/dL and 60 mg/dL and 47 mg/dL. For the same molecule, the AGR [2, 4] was 2.0 and 2.1 and 2.3 and 1.8 and 2.6, the ALB [2, 4] was 3.2 g/dL and 3.4 g/dL and 3.5 g/dL and 3.7 g/dL and the ALPK [2, 4] was 142 IU/L and 135 IU/L and 121 IU/L and 164 IU/L and 90 IU/L and 176 IU/L. For the same molecule, the ALT [2, 4] was 26 IU/L and 24 IU/L and 22 IU/L and 28 IU/L and 20 IU/L, the AST [2, 4] was 30 IU/L and 32 IU/L and 33 IU/L and 28 IU/L and the CA2 [2, 4] was 10.7 mg/dL and 10.5 mg/dL and 10.0 mg/dL and 11.2 mg/dL and 10.8 mg/dL and 10.4 mg/dL. For the same molecule, the CHOL [2, 4] was 100 mg/dL and 111 mg/dL and 126 mg/dL and 175 mg/dL and 141 mg/dL, the CREA [2, 4] was 0.6 mg/dL and 0.7 mg/dL and 1.0 mg/dL and 0.5 mg/dL and 0.9 mg/dL and the GGT [2, 4] was 3 IU/L. For the same molecule, the GLOB [2, 4] was 1.6 g/dL and 1.7 g/dL and 1.5 g/dL and 2.0 g/dL and 1.4 g/dL, the K [2, 4] was 4.7 mmo/L and 5.1 mmo/L and 5.8 mmo/L and 5.5 mmo/L and 5.3 mmo/L and 5.9 mmo/L and the Na [2, 4] was 146 mmo/L and 148 mmo/L and 149 mmo/L and 145 mmo/L. For the same molecule, the TBIL [2, 4] was 0.15 mg/dL, the TP [2, 4] was 4.8 g/dL and 5.1 g/dL and 5.0 g/dL and 5.5 g/dL and the AGR ([2]; Grp 3 Avg, 3 samplings) was 2.2 and 1.9 and 2.4. The ALB ([2]; Grp 3 Avg, 3 samplings) was 3.4 g/dL and 3.5 g/dL and 3.6 g/dL, the ALPK ([2]; Grp 3 Avg, 3 samplings) was 153 IU/L and 113 IU/L and 149 IU/L and the ALT ([2]; Grp 3 Avg, 3 samplings) was 27 IU/L and 22 IU/L and 21 IU/L. The AST ([2]; Grp 3 Avg, 3 samplings) was 30 IU/L and 32 IU/L, the CA2 ([2]; Grp 3 Avg, 3 samplings) was 11.0 mg/dL and 10.7 mg/dL and 10.2 mg/dL and the CHOL ([2]; Grp 3 Avg, 3 samplings) was 113 mg/dL and 143 mg/dL and 126 mg/dL. The CREA ([2]; Grp 3 Avg, 3 samplings) was 0.6 mg/dL and 1.0 mg/dL, the GGT ([2]; Grp 3 Avg, 3 samplings) was 3 IU/L and the GLOB ([2]; Grp 3 Avg, 3 samplings) was 1.6 g/dL and 1.9 g/dL and 1.5 g/dL. For the same molecule, the GLUC ([2]; Grp 3 Avg, 3 samplings) was 106 mg/dL and 89 mg/dL and 58 mg/dL, the K ([2]; Grp 3 Avg, 3 samplings) was 5.1 mmo/L and 5.2 mmo/L and 5.9 mmo/L and the Na ([2]; Grp 3 Avg, 3 samplings) was 148 mmo/L and 146 mmo/L and 149 mmo/L. For the same molecule, the TBIL ([2]; Grp 3 Avg, 3 samplings) was 0.15 mg/dL, the TP ([2]; Grp 3 Avg, 3 samplings) was 4.9 g/dL and 5.3 g/dL and 5.1 g/dL and the TRIG ([2]; Grp 3 Avg, 3 samplings) was 30 mg/dL and 39 mg/dL and 55 mg/dL. For the same molecule, the AGR [2, 5] was 2.3 and 1.8 and 1.9 and 2.0 and 1.7 and 1.6, the ALB [2, 5] was 3.6 g/dL and 3.4 g/dL and 3.2 g/dL and 3.3 g/dL and 3.5 g/dL and the ALPK [2, 5] was 103 IU/L and 114 IU/L and 119 IU/L and 93 IU/L and 95 IU/L and 147 IU/L and 146 IU/L and 129 IU/L. The ALT [2, 5] was 27 IU/L and 28 IU/L and 25 IU/L and 24 IU/L and 20 IU/L and 21 IU/L and 40 IU/L and 23 IU/L, the AST [2, 5] was 32 IU/L and 39 IU/L and 34 IU/L and 33 IU/L and 38 IU/L and 31 IU/L and 35 IU/L and 30 IU/L and the BUN [2, 5] was 11 mg/dL and 12 mg/dL and 13 mg/dL and 16 mg/dL and 15 mg/dL. For the same molecule, the CA2 [2, 5] was 10.8 mg/dL and 10.6 mg/dL and 10.4 mg/dL and 11.1 mg/dL and 11.2 mg/dL and 11.0 mg/dL, the CREA [2, 5] was 0.7 mg/dL and 0.6 mg/dL and 0.5 mg/dL and the GGT [2, 5] was 3 IU/L. For the same molecule, the GLOB [2, 5] was 1.6 g/dL and 1.9 g/dL and 1.7 g/dL and 2.1 g/dL and 2.0 g/dL, the K [2, 5] was 4.7 mmo/L and 4.8 mmo/L and 4.6 mmo/L and 5.1 mmo/L and 4.3 mmo/L and 5.3 mmo/L and 4.9 mmo/L and the Na [2, 5] was 152 mmo/L and 147 mmo/L and 145 mmo/L and 153 mmo/L and 148 mmo/L and 146 mmo/L and 149 mmo/L. For the same molecule, the TBIL [2, 5] was 0.15 mg/dL, the TP [2, 5] was 5.2 g/dL and 5.3 g/dL and 4.9 g/dL and 5.1 g/dL and 5.0 g/dL and 5.6 g/dL and 5.5 g/dL and 5.4 g/dL and the TRIG [2, 5] was 49 mg/dL and 46 mg/dL and 40 mg/dL and 53 mg/dL and 44 mg/dL and 34 mg/dL and 41 mg/dL and 55 mg/dL. The AGR [2, 6] was 2.2 and 1.8 and 1.9, the ALB [2, 6] was 3.5 g/dL and 3.4 g/dL and 3.3 g/dL and the ALPK [2, 6] was 103 IU/L and 104 IU/L and 107 IU/L. The ALT [2, 6] was 28 IU/L and 26 IU/L, the AST [2, 6] was 33 IU/L and 39 IU/L and the BUN [2, 6] was 12 mg/dL and 13 mg/dL. For the same molecule, the CA2 [2, 6] was 10.8 mg/dL and 10.7 mg/dL and 10.5 mg/dL, the CHOL [2, 6] was 139 mg/dL and 136 mg/dL and 112 mg/dL and the CREA [2, 6] was 0.7 mg/dL and 0.6 mg/dL. For the same molecule, the GGT [2, 6] was 3 IU/L, the GLOB [2, 6] was 1.7 g/dL and 1.9 g/dL and the GLUC [2, 6] was 102 mg/dL and 76 mg/dL and 91 mg/dL. For the same molecule, the K [2, 6] was 4.7 mmo/L and 5.0 mmo/L and 4.5 mmo/L, the Na [2, 6] was 153 mmo/L and 148 mmo/L and 146 mmo/L and the TBIL [2, 6] was 0.15 mg/dL. The TP [2, 6] was 5.2 g/dL and 5.3 g/dL and 5.0 g/dL and the TRIG [2, 6] was 51 mg/dL and 48 mg/dL and 42 mg/dL.
